According to patent publication US20260209208A1, “PHENYL-PYRAZOLE CARBOXAMIDE COMPOUNDS” (Acrivon Therapeutics, Inc., priority 2022, published 2026):

Columns and labels:
[1] = molecular target: T1, recombinant human PMYT-1 (Myt1 kinase) (Homo sapiens, UniProt Q99640); test: LanthaScreen Europium (Eu) Kinase Binding Assay for Myt1 kinase; settings: TR-FRET tracer 178 displacement, GST-tagged full length PMYT-1, 60 min, room temperature; mean IC50; read-out: LANTHA Kinase Binding for PMyt1
T1 construct: full length PMYT-1 was expressed by baculovirus in insect cells using a N-terminal GST tag; purchased Invitrogen A30984; host or cells: insect cells (baculovirus)
T1 sequence (Q99640 1-499): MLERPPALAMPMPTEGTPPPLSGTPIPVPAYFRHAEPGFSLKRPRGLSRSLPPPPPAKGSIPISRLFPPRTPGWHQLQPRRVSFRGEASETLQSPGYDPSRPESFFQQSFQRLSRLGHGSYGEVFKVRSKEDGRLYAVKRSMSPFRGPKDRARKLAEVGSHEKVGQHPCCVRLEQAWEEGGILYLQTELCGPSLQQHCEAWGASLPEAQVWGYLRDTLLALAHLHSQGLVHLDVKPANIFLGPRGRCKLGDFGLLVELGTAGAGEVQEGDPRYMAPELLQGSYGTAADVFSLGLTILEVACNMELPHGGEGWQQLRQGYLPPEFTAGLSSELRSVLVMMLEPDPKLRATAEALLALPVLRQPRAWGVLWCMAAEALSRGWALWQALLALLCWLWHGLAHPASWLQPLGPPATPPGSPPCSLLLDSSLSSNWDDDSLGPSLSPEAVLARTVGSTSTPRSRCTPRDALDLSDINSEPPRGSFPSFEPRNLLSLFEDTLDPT
Source text: We used a LanthaScreen Europium (Eu) Kinase Binding Assay to determine the binding of provided compounds to Myt1 kinase. The assay utilizes an Alexa Fluor 647-labeled ATP competitive kinase tracer that binds to the ATP binding site of a GST-tagged Myt1 kinase, while a europium (Eu) labeled antibody binds to the GST tag. The proximity of fluorescently labeled kinase tracer and europium (Eu) donor fluorophore antibody leads to fluorescence resonance energy transfer (FRET) to the fluorescence label (acceptor) upon excitation of the Eu (donor). Displacement of tracer from the ATP-binding site by a test compound disturbs the proximity between both labels thus lowering the FRET.
This time resolved-FRET binding assay was performed in white 384-well low volume plates (Greiner, cat #784075), at room temperature in kinase buffer A (KBA; Invitrogen cat # PV3189), consisting of 50 mM HEPES-NaOH (pH 7.5), 0.01% Brij-35, 10 mM MgCl2, and 1 mM EGTA. 5 μl of compound (diluted in reaction buffer, to 1% DMSO) were added to various wells in the plate, followed by 5 μl each of recombinant human PMYT-1 (full length PMYT-1 was expressed by baculovirus in insect cells using a N-terminal GST tag (MW: 80.8 kDa) (Invitrogen cat #A30984) and LanthaScreen Eu-anti-GST antibody (Invitrogen, cat #PV5594). After this, 5 μl of kinase tracer 178 (Invitrogen, cat #PV5593) was added to the plate and the plate was incubated for 60 minutes at room temperature. The final assay conditions in each well were: 3 nM tracer 178, 2.5 nM PMYT-1 and 1 nM Eu-labeled antibody in total assay volume of 15 μl. An Envision 2104 (Perkin-Elmer) Plate Reader with the following time-resolve fluorescence setting was used for performing LanthaScreen kinase binding assay. • Excitation 320 nm (30 nm bandpass) • Kinase Tracer Emission 665 nm (10 nm bandpass) • LanthaScreen Eu-anti-Tag Antibody Emission 615 nm (10 nm bandpass) • Dichroic Mirror Instrument dependent • Delay Time 100 μs • Integration Time 200 μs
To calculate the emission ratio, the acceptor/tracer emission ([…]) was divided by the antibody/donor emission ([…]) and the average of duplicate measurement was used for calculations. Data plotting, analysis of binding, and curve fitting was done using Excel add-in XLfit version 5.5.0.5 (IDBS, Guildford, United Kingdom).

Myt1 Kinase = molecular target: T2, Myt1 Kinase (Homo sapiens, UniProt Q99640); test: AlphaLISA SureFire Ultra Human Phospho-CDK1 (Thr14) target engagement assay in DAOY cells; type: cell-based; settings: 4 h incubation, Cdk1 phosphorylated on threonine 14, read-out: TE Myt1 Kinase (AlphaLISA)
T2 construct: endogenous in cells; host or cells: DAOY medulloblastoma cells (ATCC)
T2 sequence (Q99640 1-499): T1 sequence (Q99640 1-499)
Method: The following cellular assay was used to determine the extent to which the compounds disclosed herein inhibit phosphorylation of CDK1 at Thr 14.
DAOY medulloblastoma cell line (ATCC) was cultured in Minimum Essential Medium Eagle supplemented with 10% fetal calf serum (Sigma), 1% Penicillin-Streptomycin and 10 mM HEPES buffer (HyClone). Cell cultures were kept in a humidified incubator at 37° C. and 5% CO2. Cells were routinely tested for Mycoplasma contamination.
For target engagement assessment, quantification of Cdk1 phosphorylated on threonine 14 was detected using the AlphaLISA® SureFire® Ultra™ Human Phospho-CDK1 (Thr14) assay (Perkin Elmer). DAOY cells were seeded into tissue culture 96-well plates (VWR) to a density of 10,000 cells per well. Twenty-four hours post-seeding cells were incubated for 4 h with test compounds at concentrations ranging from 7 to 5000 nM. Cells were washed with PBS and lysed in 50 μl AlphaLISA® lysis buffer before freezing at −80° C. Ten μl of the lysate was transferred to 384 well plates and incubated with AlphaLISA® donor and acceptor beads according to the manufacturer's instructions. Dose response curves and EC50 values were calculated and visualized using GraphPad Prism version 9.

Row | Structure (SMILES) | IC50 [1] [nM] | EC50 (Myt1 Kinase) [nM]
1 | Cc1ccc2[nH]nc(C)c2c1-n1nc(-c2ccco2)c(C(N)=O)c1N (atropisomer, axis not shown) [Compound 116, 5-amino-1-(3,5-dimethyl-1H-indazol-4-yl)-3-(furan-2-yl)-1H-pyrazole-4-carboxamide] | > 250 | –
2 | Cc1ccc2[nH]nc(C)c2c1-n1nc(-c2ccco2)c(C(N)=O)c1N (single isomer, unassigned) [Compound 103, 5-amino-1-(3,5-dimethyl-1H-indazol-4-yl)-3-(furan-2-yl)-1H-pyrazole-4-carboxamide] | 10 to 100 | –
3 | Cc1ccc(O)cc1-n1nc(-c2ccccc2)c(C(N)=O)c1N [Compound 1, 5-amino-1-(5-hydroxy-2-methylphenyl)-3-phenyl-1H-pyrazole-4-carboxamide] | 100 to 250 | 500 to 1000
4 | Cc1ccc(O)cc1-n1nc(-c2ccc(F)cc2)c(C(N)=O)c1N [Compound 2, 5-amino-3-(4-fluorophenyl)-1-(5-hydroxy-2-methylphenyl)-1H-pyrazole-4-carboxamide] | 100 to 250 | –
5 | COc1ccc(-c2nn(-c3cc(O)ccc3C)c(N)c2C(N)=O)cc1 [Compound 3, 5-amino-1-(5-hydroxy-2-methylphenyl)-3-(4-methoxyphenyl)-1H-pyrazole-4-carboxamide] | > 250 | –
6 | Cc1ccc(O)cc1-n1nc(-c2ccc(Cl)cc2)c(C(N)=O)c1N [Compound 4, 5-amino-3-(4-chlorophenyl)-1-(5-hydroxy-2-methylphenyl)-1H-pyrazole-4-carboxamide] | 100 to 250 | > 1000
7 | Cc1ccc2[nH]ncc2c1-n1nc(-c2ccccc2)c(C(N)=O)c1N [Compound 5, 5-amino-1-(5-methyl-1H-indazol-4-yl)-3-phenyl-1H-pyrazole-4-carboxamide] | 10 to 100 | > 1000
8 | Cc1ccc(O)cc1-n1nc(-c2cccc(Br)c2)c(C(N)=O)c1N [Compound 6, 5-amino-3-(3-bromophenyl)-1-(5-hydroxy-2-methylphenyl)-1H-pyrazole-4-carboxamide] | > 250 | > 1000
9 | Cc1ccc(O)cc1-n1nc(-c2cccc(-c3ccncc3)c2)c(C(N)=O)c1N [Compound 7, 5-amino-1-(5-hydroxy-2-methylphenyl)-3-[3-(pyridin-4-yl)phenyl]-1H-pyrazole-4-carboxamide] | > 250 | –
10 | Cc1ccc(O)cc1-n1nc(-c2cccc(C3CCNCC3)c2)c(C(N)=O)c1N [Compound 8, 5-amino-1-(5-hydroxy-2-methylphenyl)-3-[3-(piperidin-4-yl)phenyl]-1H-pyrazole-4-carboxamide] | > 250 | –
11 | COc1ccc(S(=O)(=O)O)cc1-c1nn(-c2c(C)ccc(O)c2C)c(N)c1C(N)=O [Compound 60] | > 250 | –
12 | COc1ccccc1-c1nn(-c2c(C)ccc(O)c2C)c(N)c1C(N)=O [Compound 64] | > 250 | –
13 | Cc1ccc2[nH]ncc2c1-n1nc(-c2cc3ccccc3o2)c(C(N)=O)c1N [Compound 77, 5-amino-3-(1-benzofuran-2-yl)-1-(5-methyl-1H-indazol-4-yl)-4-pyrazolecarboxamide] | 10 to 100 | > 1000
14 | Cc1ccc2[nH]ncc2c1-n1nc(-c2ccco2)c(C(N)=O)c1N [Compound 84, 5-amino-3-(2-furyl)-1-(5-methyl-1H-indazol-4-yl)-4-pyrazolecarboxamide] | 10 to 100 | > 1000
15 | Cc1ccc2[nH]ncc2c1-n1nc(-c2ccc(Br)o2)c(C(N)=O)c1N [Compound 85, 5-amino-3-(5-bromo-2-furyl)-1-(5-methyl-1H-indazol-4-yl)-4-pyrazolecarboxamide] | 10 to 100 | > 1000
16 | NC(=O)c1c(-c2ccco2)nn(-c2c(Cl)ccc(O)c2Cl)c1N [Compound 91, 5-amino-1-(2,6-dichloro-3-hydroxyphenyl)-3-(2-furyl)-4-pyrazolecarboxamide] | 10 to 100 | > 1000

Second part, the compound after the results:

Row | IC50 [1] [nM] | EC50 (Myt1 Kinase) [nM] | Structure (SMILES)
17 | 10 to 100 | > 1000 | Cc1ccc(O)c(C)c1-n1nc(-c2ccco2)c(C(N)=O)c1N (single isomer, unassigned) [Compound 105, 5-amino-3-(furan-2-yl)-1-(3-hydroxy-2,6-dimethylphenyl)-1H-pyrazole-4-carboxamide]
18 | > 250 | – | Cc1ccc(O)c(C)c1-n1nc(-c2cc3ccccc3o2)c(C(N)=O)c1N (single isomer, unassigned) [Compound 109, 5-amino-3-(benzofuran-2-yl)-1-(3-hydroxy-2,6-dimethylphenyl)-1H-pyrazole-4-carboxamide]
19 | 100 to 250 | – | Cc1ccc(O)c(C)c1-n1nc(-c2cc(Br)co2)c(C(N)=O)c1N (single isomer, unassigned) [Compound 110, 5-amino-3-(4-bromofuran-2-yl)-1-(3-hydroxy-2,6-dimethylphenyl)-1H-pyrazole-4-carboxamide]
20 | 10 to 100 | > 1000 | Cc1ccc(O)c(C)c1-n1nc(-c2cccc(F)c2)c(C(N)=O)c1N [Compound 61]
21 | > 250 | – | Cc1ccc(O)c(C)c1-n1nc(-c2ccccc2Cl)c(C(N)=O)c1N [Compound 62]
22 | 10 to 100 | – | Cc1cccc(-c2nn(-c3c(C)ccc(O)c3C)c(N)c2C(N)=O)c1 [Compound 63]
23 | 10 to 100 | – | Cc1ccc(O)c(C)c1-n1nc(-c2ccccc2F)c(C(N)=O)c1N [Compound 65]
24 | > 250 | – | Cc1ccccc1-c1nn(-c2c(C)ccc(O)c2C)c(N)c1C(N)=O [Compound 66]
25 | 10 to 100 | > 1000 | Cc1cc(Cl)c(O)c(C)c1-n1nc(-c2ccc(Br)o2)c(C(N)=O)c1N [Compound 74, 5-amino-3-(5-bromo-2-furyl)-1-(4-chloro-3-hydroxy-2,6-xylyl)-4-pyrazolecarboxamide]
26 | 10 to 100 | > 1000 | Cc1ccc(O)c(C)c1-n1nc(-c2ccoc2)c(C(N)=O)c1N [Compound 76, 5-amino-3-(3-furyl)-1-(3-hydroxy-2,6-xylyl)-4-pyrazolecarboxamide]
27 | 10 to 100 | 250 to 500 | Cc1ccc(O)c(C)c1-n1nc(-c2coc(Br)c2)c(C(N)=O)c1N [Compound 78, 5-amino-3-(5-bromo-3-furyl)-1-(3-hydroxy-2,6-xylyl)-4-pyrazolecarboxamide]
28 | 10 to 100 | > 1000 | Cc1ccoc1-c1nn(-c2c(C)ccc(O)c2C)c(N)c1C(N)=O [Compound 83, 5-amino-1-(3-hydroxy-2,6-xylyl)-3-(3-methyl-2-furyl)-4-pyrazolecarboxamide]
29 | ≤ 10 | 250 to 500 | Cc1cc(-c2nn(-c3c(C)ccc(O)c3C)c(N)c2C(N)=O)oc1C [Compound 89, 5-amino-3-(4,5-dimethyl-2-furyl)-1-(3-hydroxy-2,6-xylyl)-4-pyrazolecarboxamide]
30 | 10 to 100 | – | Cc1ccc(O)c(C)c1-n1nc(-c2cnn(C)c2)c(C(N)=O)c1N [Compound 121]
